Source: patent US20250333424A1, “ANTIVIRAL COMPOUNDS” (Gilead Sciences, Inc., priority 2024, published 2025)
pEC50: −log10 of the molar value.

Tested on: monocytic THP1 cells infected with HIV VSV-G pseudotyped GFP-NEF reporter virus
Test: cells
Type: cell-based
Conditions: Human immunodeficiency virus 1, THP-1, 24 h

Point of comparison: `Cc1cc(/C=C/C#N)cc(C)c1Oc1nc(NC23CC(C#N)(C2)C3)nc2c1C1(C)OC[C@@H](C)CN1C2=O` (single isomer, unassigned) [Example 243], pEC50 6.66. Against it:
- Cc1cc(/C=C/C#N)cc(C)c1Oc1nc(NC23CC(C#N)(C2)C3)nc2nn(C)c(I)c12 [Compound 87, (E)-3-((4-(4-(2-cyanovinyl)-2,6-dimethylphenoxy)-3-iodo-2-methyl-2H-pyrazolo[3,4-d]pyrimidin-6-yl)amino)bicyclo[1.1.1]pentane-1-carbonitrile] — 0.94 log units higher, 7.60
- Cc1cc(/C=C/C#N)cc(C)c1Oc1nc(NC23CC(C#N)(C2)C3)nc2c1C1(C)OCC[C@H](C)N1C2=O (stereo partly drawn) [Compound 271, 3-(((8S)-4-(4-((E)-2-cyanovinyl)-2,6-dimethylphenoxy)-4b,8-dimethyl-10-oxo-4b,7,8,10-tetrahydro-6H-pyrimido[5′,4′:3,4]pyrrolo[2,1-b][1,3]oxazin-2-yl)amino)bicyclo[11.1.1]pentane-1-carbonitrile] — 0.62 log units higher, 7.28
- Cc1cc(/C=C/C#N)cc(C)c1Oc1nc(NC23CC(C#N)(C2)C3)nc2nn(C)c(C)c12 [Compound 86, (E)-3-((4-(4-(2-cyanovinyl)-2,6-dimethylphenoxy)-2,3-dimethyl-2H-pyrazolo[3,4-d]pyrimidin-6-yl)amino)bicyclo[1.1.1]pentane-1-carbonitrile] — 1.08 log units higher, 7.74
- C=C1c2c(Oc3c(C)cc(/C=C/C#N)cc3C)nc(NC34CC(C#N)(C3)C4)nc2C(=O)N1[C@H]1CC[C@@H](O)C1 [Compound 269, 3-((4-(4-((E)-2-cyanovinyl)-2,6-dimethylphenoxy)-6-((1S,3R)-3-hydroxycyclopentyl)-5-methylene-7-oxo-6,7-dihydro-5H-pyrrolo[3,4-d]pyrimidin-2-yl)amino)bicyclo[1.1.1]pentane-1-carbonitrile] — 0.58 log units higher, 7.24
- Cc1cc(/C=C/C#N)cc(C)c1Oc1nc(NC23CC(C#N)(C2)C3)nc2nn3c(c12)CCC3 [Example 257, (E)-3-((4-(4-(2-cyanovinyl)-2,6-dimethylphenoxy)-6,7-dihydro-5H-pyrrolo[1′,2′:1,5]pyrazolo[3,4-d]pyrimidin-2-yl)amino)bicyclo[1.1.1]pentane-1-carbonitrile] — 0.98 log units higher, 7.64
- COCCN1C(=O)c2nc(NC34CC(C#N)(C3)C4)nc(Oc3c(C)cc(/C=C/C#N)cc3C)c2C1C (centres unmarked) [Example 203, (E)-3-((4-(4-(2-cyanovinyl)-2,6-dimethylphenoxy)-6-(2-methoxyethyl)-5-methyl-7-oxo-6,7-dihydro-5H-pyrrolo[3,4-d]pyrimidin-2-yl)amino)bicyclo[1.1.1]pentane-1-carbonitrile] — 0.90 log units higher, 7.56
- Cc1cc(/C=C/C#N)cc(C)c1Oc1nc(NC23CC(C#N)(C2)C3)nc2nc(C(F)F)n(C)c12 [Compound 25, (E)-3-((6-(4-(2-cyanovinyl)-2,6-dimethylphenoxy)-8-(difluoromethyl)-7-methyl-7H-purin-2-yl)amino)bicyclo[1.1.1]pentane-1-carbonitrile] — 0.77 log units higher, 7.43
- Cc1cc(/C=C/C#N)cc(C)c1Oc1nc(NC23CC(C#N)(C2)C3)nc2c1C1(C)OCCCN1C2=O (centres unmarked) [Compound 314, (E)-3-((4-(4-(2-cyanovinyl)-2,6-dimethylphenoxy)-4b-methyl-10-oxo-4b,7,8,10-tetrahydro-6H-pyrimido[5′,4′:3,4]pyrrolo[2,1-b][1,3]oxazin-2-yl)amino)bicyclo[1.1.1]pentane-1-carbonitrile] — 0.94 log units higher, 7.60
- Cc1cc(/C=C/C#N)cc(C)c1Oc1nc(NC23CC(C#N)(C2)C3)nc2c1n(C(F)F)c(=O)n2C(F)F [Compound 28, (E)-3-((6-(4-(2-cyanovinyl)-2,6-dimethylphenoxy)-7,9-bis(difluoromethyl)-8-oxo-8,9-dihydro-7H-purin-2-yl)amino)bicyclo[1.1.1]pentane-1-carbonitrile] — 0.70 log units higher, 7.36
- Cc1cc(/C=C/C#N)cc(C)c1Oc1nc(NC23CC(C#N)(C2)C3)nc2nc3n(c12)CCO3 [Compound 184, (E)-3-((4-(4-(2-cyanovinyl)-2,6-dimethylphenoxy)-6,7-dihydrooxazolo[2,3-f]purin-2-yl)amino)bicyclo[1.1.1]pentane-1-carbonitrile] — 0.78 log units higher, 7.44
